In patent US20250176904A1, “PRE-DOSING METHOD OF ASSESSING DRUG BENEFITS IN PATIENTS” (priority 2022, published 2025):
Several values for one entry are separate records, joined by “and”; a condition that tells them apart may be missing. Equal entries are not always repeated. Entries after “also recorded” stand apart in the source; their conditions may differ.

Experiments:
healthy volunteers = settings: human, in vivo, po
Male Long Evans rats = experiment: Progressive ratio responding for food (lever press, break point, session duration); type: in vivo
Experimental: Animals and housing: Male Long Evans rats were used (source: Charles River Laboratories, St. Constant, Quebec). All study animals were singly housed in a vivarium under a 12 h light:dark cycle (lights on: 06:00 h-18:00 h). All behavioural testing was during the light phase. Rats were placed on a restricted diet regimen, where they were fed once a day with approximately 20 g of standard laboratory chow at the completion of testing procedures (16:00 h-18:00 h). For these animals, water was freely available except during testing. All animal use procedures were performed in accordance with the principles of the Canadian Council on Animal Care (CCAC).
Methods: A total of 72 rats were used in the psilocybin experiment. The basic test design involved training animals to lever press for a food reward (45 mg Bioserv pellets) under a progressive ratio (PR) schedule in which the number of responses required to achieve a pellet increases for successive reinforcers. The progressive ratio was derived from the equation ratio=[5×e^(0.2×reinforcer #)−5], and was as follows: […], etc.
Subjects were administered psilocybin (0.025, 0.05, 0.1 mg/kg) or vehicle control according to Latin square design, in which each animal received each treatment over repeated test sessions with 2-3 day intervals between each testing cycle. Subjects were also subgrouped into low responders (N=24) based on having the lowest average break point measure recorded over 7 days prior to testing and a separate analysis was conducted on this cohort.
Statistical analysis: Data are presented as means±SEM. Data from the progressive ratio task was analysed by one way (treatment) repeated measures ANOVA (Statistica Version 11, Statsoft Inc. [2012]). In the event of a significant main effect, post-hoc comparisons were carried out with Dunnett's test for comparison of drug treatment to vehicle control. Both study cohorts of “All” and “Low responders” were analysed separately. In all cases the accepted level of significance was P<0.05. Effect sizes for group mean differences were also calculated using partial eta squared (Statistica Version 11, Statsoft Inc. [2012]). In addition a correlational analysis (parametric: Pearson R; non-parametric: Spearman R) was conducted at each dose level to look at the relationship between baseline (vehicle) response and magnitude of change in break point and lever press following each psilocybin dose.

[1] = all 72 rats, psilocybin 0.025, 0.05, 0.1 mg/kg SC vs vehicle, ANOVA main effect
[2] = low responder subgroup N=24, psilocybin 0.05-0.1 mg/kg relative to vehicle control

CN(C)CCc1c[nH]c2cccc(OP(=O)(O)O)c12 [Psilocybin, 4-phosphoryloxy-N,N-dimethyltryptamine]
RTI Median Five-Choice Reaction Time 2 Hr (healthy volunteers): 381 and 347 and 377 and 386.5 and 446 and 343 | RTI Median Five-Choice Reaction Time 4 Hr (healthy volunteers): 330 and 346 and 377 and 413 and 431 and 330.5 | number of lever press (Male Long Evans rats; [1]): no main effect of treatment | session duration (Male Long Evans rats; [1]): no main effect of treatment | break point (Male Long Evans rats; all 72 rats, psilocybin 0.025, 0.05, 0.1 mg/kg SC vs vehicle, post-hoc comparison): no treatment group was significantly different to vehicle | relationship between baseline responding and % change in break point or lever press (Male Long Evans rats; low responder subgroup N=24, 0.025 mg/kg SC): no such correlation; also recorded: no significant correlation | relationship between baseline responding and % change in break point or lever press (Male Long Evans rats; low responder subgroup N=24, 0.05 mg/kg SC, Pearson R and Spearman R): inverse correlation; also recorded: significant correlation | relationship between baseline responding and % change in break point or lever press (Male Long Evans rats; low responder subgroup N=24, 0.1 mg/kg SC, Pearson R and Spearman R): inverse correlation; also recorded: significant correlation | session duration (Male Long Evans rats; low responder subgroup N=24, 0.1 mg/kg, mean±SEM): 18.7 ± 2.5 min | session duration (treatment effect) (Male Long Evans rats; low responder subgroup N=24, psilocybin 0.025-0.1 mg/kg vs vehicle, ANOVA): no treatment effect | break point (Male Long Evans rats; [2]): increases | lever press (Male Long Evans rats; [2]): increases
